pEC50: −log10 of the molar value. Read-outs that look alike come from different tables or passages of the source.
Key:
human CB2 receptors = biological target: T1, human CB2 receptors (Homo sapiens, UniProt P34972); assay: functional cAMP assay, human CB2; assay type: cell-based; conditions: CHO cells expressing human CB2, cAMP; read-out: human CB2 EC50
T1 construct: expressed in transfected cells; host or cells: CHO cells
Experimental: (§1) CHO cells expressing human CB1 or CB2 receptors are seeded 17-24 hours prior to the experiment 50.000 cells per well in a black 96 well plate with flat clear bottom (Corning Costar #3904) in DMEM (Invitrogen No. 31331), 1×HT supplement, with 10% fetal calf serum and incubated at 5% CO2 and 37° C. in a humidified incubator. The growth medium was exchanged with Krebs Ringer Bicarbonate buffer with 1 mM IBMX and incubated at 30° C. for 30 min. Compounds were added to a final assay volume of 100 μl and incubated for 30 min at 30° C. Using the cAMP-Nano-TRF detection kit the assay (Roche Diagnostics) was stopped by the addition of 50 μl lysis reagent (Tris, NaCl, 1.5% Triton X100, 2.5% NP40, 10% NaN3) and 50 μl detection solutions (20 μM mAb Alexa700-cAMP 1:1, and 48 μM Ruthenium-2-AHA-cAMP) and shaken for 2 h at room temperature. The time-resolved energy transfer is measured by a TRF reader (Evotec Technologies GmbH), equipped with a ND:YAG laser as excitation source. The plate is measured twice with the excitation at 355 nm and at the emission with a delay of 100 ns and a gate of 100 ns, total exposure time 10 s at 730 (bandwidth 30 nm) or 645 nm (bandwidth 75 nm), respectively. The FRET signal is calculated as follows: FRET=T730-Alexa730-P(T645-B645) with P=Ru730-B730/Ru645-B645, where T730 is the test well measured at 730 nM, T645 is the test well measured at 645 nm, B730 and B645 are the buffer controls at 730 nm and 645 nm, respectively. cAMP content is determined from the function of a standard curve spanning from 10 μM to 0.13 nM cAMP.
(§2) EC50 values were determined using Activity Base analysis (ID Business Solution, Limited). The EC50 values for a wide range of cannabinoid agonists generated from this assay were in agreement with the values published in the scientific literature.

human CB1 receptors = biological target: T2, human CB1 receptors (Homo sapiens, UniProt P21554); assay: functional cAMP assay, human CB1; assay type: cell-based
T2 construct: expressed in transfected cells; host or cells: CHO cells
Experimental: as §1, §2

[1] = CHO cells expressing human CB1, cAMP, read-out: human CB1 EC50

T2 sequence (P21554 whole entry): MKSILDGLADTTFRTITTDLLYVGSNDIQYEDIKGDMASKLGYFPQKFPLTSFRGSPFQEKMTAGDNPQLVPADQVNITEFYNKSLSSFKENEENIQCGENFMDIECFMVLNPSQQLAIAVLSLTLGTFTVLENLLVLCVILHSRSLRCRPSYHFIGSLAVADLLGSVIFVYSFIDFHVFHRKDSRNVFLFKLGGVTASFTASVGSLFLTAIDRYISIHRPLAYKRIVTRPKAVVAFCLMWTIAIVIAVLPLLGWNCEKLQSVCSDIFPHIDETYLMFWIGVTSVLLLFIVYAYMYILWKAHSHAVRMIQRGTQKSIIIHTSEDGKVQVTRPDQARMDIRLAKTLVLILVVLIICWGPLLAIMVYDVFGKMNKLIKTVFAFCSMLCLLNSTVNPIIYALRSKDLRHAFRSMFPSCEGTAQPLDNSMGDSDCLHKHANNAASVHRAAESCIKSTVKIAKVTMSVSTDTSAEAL
T1 sequence (P34972 whole entry): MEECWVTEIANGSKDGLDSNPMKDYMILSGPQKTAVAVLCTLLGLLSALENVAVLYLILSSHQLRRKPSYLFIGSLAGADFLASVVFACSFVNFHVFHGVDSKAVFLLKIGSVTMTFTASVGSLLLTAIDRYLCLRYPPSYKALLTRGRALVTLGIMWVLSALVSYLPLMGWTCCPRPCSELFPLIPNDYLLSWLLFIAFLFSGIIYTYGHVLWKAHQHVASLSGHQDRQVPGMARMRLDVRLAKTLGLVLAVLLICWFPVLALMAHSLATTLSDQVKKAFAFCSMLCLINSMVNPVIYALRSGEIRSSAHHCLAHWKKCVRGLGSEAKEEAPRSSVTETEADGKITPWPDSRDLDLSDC

CC(C)(C)c1nc(N2CCC(F)(F)C2)c2nnn(CC3CCCCC3)c2n1 [Example 64, 5-tert-Butyl-3-cyclohexylmethyl-7-(3,3-difluoro-pyrrolidin-1-yl)-3H-[1,2,3]triazolo[4,5-d]pyrimidine]
pEC50 (human CB2 receptors): 8.64 | pEC50 (human CB1 receptors; [1]): < 5.00

CC1(C)CCN(c2nc(C(C)(C)C)nc3c2nnn3Cc2ccccc2Cl)C1 [Example 189, 5-tert-Butyl-3-(2-chloro-benzyl)-7-(3,3-dimethyl-pyrrolidin-1-yl)-3H-[1,2,3]triazolo[4,5-d]pyrimidine]
pEC50 (human CB2 receptors): 7.48 | pEC50 (human CB1 receptors; [1]): < 5.00

CC(C)(C)c1nc(N2C[C@@H](O)[C@@H](O)C2)c2nnn(Cc3ccccc3Cl)c2n1 [Example 56, (3S,4R)-1-[5-tert-Butyl-3-(2-chloro-benzyl)-3H-[1,2,3]triazolo[4,5-d]pyrimidin-7-yl]-pyrrolidine-3,4-diol]
pEC50 (human CB2 receptors): 7.78 | pEC50 (human CB1 receptors; [1]): < 5.00

Cc1nc(Cn2nnc3c(N4CCC(F)(F)C4)nc(C(C)(C)C)nc32)n(C)n1 [Example 163, 5-tert-Butyl-7-(3,3-difluoro-pyrrolidin-1-yl)-3-(2,5-dimethyl-2H-[1,2,4]triazol-3-ylmethyl)-3H-[1,2,3]triazolo[4,5-d]pyrimidine]
pEC50 (human CB2 receptors): 8.26 | pEC50 (human CB1 receptors; [1]): < 5.00

CC(C)(C)c1nc(N2CC[C@@](C)(O)C2)c2nnn(CCC(F)(F)F)c2n1 [Example 229-b, (R)-1-(5-tert-butyl-3-(3,3,3-trifluoropropyl)-3H-[1,2,3]triazolo[4,5-d]pyrimidin-7-yl)-3-methylpyrrolidin-3-ol]
pEC50 (human CB2 receptors): 7.43 | pEC50 (human CB1 receptors; [1]): < 5.00

Cn1nncc1Cn1nnc2c(N3CC(F)(F)C(F)(F)C3)nc(C(C)(C)C)nc21 [Example 178, 5-tert-Butyl-3-(3-methyl-3H-[1,2,3]triazol-4-ylmethyl)-7-(3,3,4,4-tetrafluoro-pyrrolidin-1-yl)-3H-[1,2,3]triazolo[4,5-d]pyrimidine]
pEC50 (human CB2 receptors): 9.05 | pEC50 (human CB1 receptors; [1]): 5.72

CC(C)(C)c1nc(N2CCC(F)(F)C2)c2nnn(C3CS(=O)(=O)C3)c2n1 [Example 125, 5-tert-Butyl-7-(3,3-difluoro-pyrrolidin-1-yl)-3-(1,1-dioxo-1λ^6-thietan-3-yl)-3H-[1,2,3]triazolo[4,5-d]pyrimidine]
pEC50 (human CB2 receptors): 8.72 | pEC50 (human CB1 receptors; [1]): < 5.00

Cn1nnnc1Cn1nnc2c(N3CC[C@](C)(O)C3)nc(C(C)(C)C)nc21 [Example 227-a, (S)-1-(5-tert-butyl-3-((1-methyl-1H-tetrazol-5-yl)methyl)-3H-[1,2,3]triazolo[4,5-d]pyrimidin-7-yl)-3-methylpyrrolidin-3-ol]
pEC50 (human CB2 receptors): 7.73 | pEC50 (human CB1 receptors; [1]): < 5.00

CC(C)(C)c1nc(N2CC[C@H](O)C2)c2nnn(Cc3cccnc3Nc3ccc([N+](=O)[O-])c4nonc34)c2n1 [Example 158, (S)-1-{5-tert-Butyl-3-[2-(7-nitro-benzo[1,2,5]oxadiazol-4-ylamino)-pyridin-3-ylmethyl]-3H-[1,2,3]triazolo[4,5-d]pyrimidin-7-yl}-pyrrolidin-3-ol]
pEC50 (human CB2 receptors): 6.60 | pEC50 (human CB1 receptors): < 5.00

CC(C)(C)c1nc(N2C[C@@H](O)[C@H](O)C2)c2nnn(Cc3ccccc3Cl)c2n1 (relative stereo) [Example 55, 1-[5-tert-Butyl-3-(2-chloro-benzyl)-3H-[1,2,3]triazolo[4,5-c]pyrimidin-7-yl]-pyrrolidine-3,4-trans-diol]
pEC50 (human CB2 receptors): 7.98 | pEC50 (human CB1 receptors; [1]): < 5.00

CC(C)(C)c1nc(N2CCC23COC3)c2nnn(Cc3ccccc3Cl)c2n1 [Example 35, 5-tert-Butyl-3-(2-chloro-benzyl)-7-(6-oxa-1-aza-spiro[3.3]hept-1-yl)-3H-[1,2,3]triazolo[4,5-d]pyrimidine]
pEC50 (human CB2 receptors): 8.44 | pEC50 (human CB1 receptors; [1]): < 5.00

CC(C)(C)c1nc(OCC2CC2)c2nnn(Cc3ccccc3Cl)c2n1 [Example 210, 5-tert-Butyl-3-(2-chloro-benzyl)-7-cyclopropylmethoxy-3H-[1,2,3]triazolo[4,5-d]pyrimidine]
pEC50 (human CB2 receptors): 7.78 | pEC50 (human CB1 receptors; [1]): < 5.00

Cn1ncnc1Cn1nnc2c(N3CC[C@H](O)C3)nc(C(C)(C)C)nc21 [Example 152, (S)-1-[5-tert-Butyl-3-(2-methyl-2H-[1,2,4]triazol-3-ylmethyl)-3H-[1,2,3]triazolo[4,5-d]pyrimidin-7-yl]-pyrrolidin-3-ol]
pEC50 (human CB2 receptors): 7.98 | pEC50 (human CB1 receptors; [1]): < 5.00

CN1CCN(c2nc(C(C)(C)C)nc3c2nnn3Cc2ccccc2Cl)CC1 [Example 4, 5-tert-Butyl-3-(2-chloro-benzyl)-7-(4-methyl-piperazin-1-yl)-3H-[1,2,3]triazolo[4,5-d]pyrimidine]
pEC50 (human CB2 receptors): 8.85 | pEC50 (human CB1 receptors; [1]): 6.72

CC(C)(C)c1nc(N2CC[C@@H](O)[C@@H]2CO)c2nnn(Cc3ccccc3Cl)c2n1 [Example 52, (2S,3R)-1-[5-tert-Butyl-3-(2-chloro-benzyl)-3H-[1,2,3]triazolo[4,5-d]pyrimidin-7-yl]-2-hydroxymethyl-pyrrolidin-3-ol]
pEC50 (human CB2 receptors): 7.68 | pEC50 (human CB1 receptors; [1]): < 5.00

Cc1nnc(Cn2nnc3c(N4CC5(COC5)C4)nc(C(C)(C)C)nc32)o1 [Example 181, 5-tert-Butyl-3-(5-methyl-[1,3,4]oxadiazol-2-ylmethyl)-7-(2-oxa-6-aza-spiro[3.3]hept-6-yl)-3H-[1,2,3]triazolo[4,5-d]pyrimidine]
pEC50 (human CB2 receptors): 7.23 | pEC50 (human CB1 receptors; [1]): < 5.00

Cc1nnc(Cn2nnc3c(N4CC[C@H](O)C4)nc(C(C)(C)C)nc32)o1 [Example 150, (S)-1-[5-tert-Butyl-3-(5-methyl-[1,3,4]oxadiazol-2-ylmethyl)-3H-[1,2,3]triazolo[4,5-d]pyrimidin-7-yl]-pyrrolidin-3-ol]
pEC50 (human CB2 receptors): 7.44 | pEC50 (human CB1 receptors; [1]): < 5.00

CC(C)(C)c1nc(N2CC[C@H](O)C2)c2nnn(Cc3cccnc3Cl)c2n1 [Example 140, (S)-1-[5-tert-Butyl-3-(2-chloro-pyridin-3-ylmethyl)-3H-[1,2,3]triazolo[4,5-d]pyrimidin-7-yl]-pyrrolidin-3-ol]
pEC50 (human CB2 receptors): 10.00 | pEC50 (human CB1 receptors; [1]): < 5.00

CC(Oc1nc(C(C)(C)C)nc2c1nnn2Cc1ccccc1Cl)C(F)(F)F (stereo not shown) [Example 214, 5-tert-Butyl-3-(2-chloro-benzyl)-7-(2,2,2-trifluoro-1-methyl-ethoxy)-3H-[1,2,3]triazolo[4,5-d]pyrimidine]
pEC50 (human CB2 receptors): 8.03 | pEC50 (human CB1 receptors; [1]): < 5.00

Cc1cc(Cn2nnc3c(N4CCC(F)(F)C4)nc(C(C)(C)C)nc32)n(C)n1 [Example 144, 5-tert-Butyl-7-(3,3-difluoro-pyrrolidin-1-yl)-3-(2,5-dimethyl-2H-pyrazol-3-ylmethyl)-3H-[1,2,3]triazolo[4,5-d]pyrimidine]
pEC50 (human CB2 receptors): 9.40 | pEC50 (human CB1 receptors; [1]): 6.91

CC(C)(C)c1nc(N2CC[C@H](O)[C@@H]2CO)c2nnn(Cc3ccccc3S(C)(=O)=O)c2n1 [Example 168, (2S,3S)-1-[5-tert-Butyl-3-(2-methanesulfonyl-benzyl)-3H-[1,2,3]triazolo[4,5-d]pyrimidin-7-yl]-2-hydroxymethyl-pyrrolidin-3-ol]
pEC50 (human CB2 receptors): 8.03 | pEC50 (human CB1 receptors; [1]): < 5.00

CC(C)(C)c1nc(N2CCC(F)(F)C2)c2nnn(CC(=O)c3cccnc3)c2n1 [Example 117, 2-[5-tert-Butyl-7-(3,3-difluoro-pyrrolidin-1-yl)-[1,2,3]triazolo[4,5-d]pyrimidin-3-yl]-1-pyridin 3-yl-ethanone]
pEC50 (human CB2 receptors): 9.70 | pEC50 (human CB1 receptors; [1]): < 5.00

CC(C)(C)c1nc(N2CCC[C@H]2CO)c2nnn(Cc3ccccc3Cl)c2n1 [Example 38, {(S)-1-[5-tert-Butyl-3-(2-chloro-benzyl)-3H-[1,2,3]triazolo[4,5-d]pyrimidin-7-yl]-pyrrolidin-2-yl}-methanol]
pEC50 (human CB2 receptors): 7.74 | pEC50 (human CB1 receptors; [1]): 6.44

Source: patent US8741906B2 (priority 2011, dated 2014)
